Results reported in patent publication US20180110762A1, “Compositions Methods for Treating Chronic Kidney Disease” (Merck Sharp & Dohme Corp, priority 2015, published 2018).

Legend:
[1] = target: T1, Human recombinant integrin αvβ1 (Homo sapiens, UniProt P05556+P06756); experiment: Solid phase receptor assay, αvβ1 (fibronectin); type: binding
T1 construct: purchased R&D Systems
Method: (§1) The assay was performed according to the method described in International Patent Publication WO 2014/015054 A1 “Beta Amino Acid Derivatives As Integrin Antagonists.” Briefly, 96-well plates were coated overnight with purified fibronectin or vitronectin (R&D Systems) in TBS+ buffer (25 mM Tris 7.4, 137 mM NaCl, 2.7 mM KCl, 1 mM CaCl2, 1 mM MgCl2, 1 mM MnCl2). Compound A was added at different concentrations to recombinant human integrin proteins (R&D Systems) reconstituted in TBS+/0.1% bovine serum albumin, and 50 μL of this mixture were added to the empty wells of the coated plate and incubated for 1-2 hours. After 3 washes, 50 μL of biotinylated antibody (R&D Systems) in TBS+/0.1% bovine serum albumin were added. The procedure continued with three more washes, addition of 50 μL of streptavidin-conjugated horseradish peroxidase (R&D Systems), and incubation for 20 minutes. After 3 more washes, 50 μL of tetramethylbenzidine (TMB) substrate (SIGMA) were added and plates were read after 20 min by colorimetric detection at 650 nm wavelength in an EnVision Multilabel Plate Reader (Perkin Elmer). The concentrations of fibronectin used were: 2 μg/mL for the α5β1 assay and 5 μg/mL for the αvβ1 assay. The concentrations of vitronectin used were: 1 μg/mL for the αvβ3 assay and 0.25 μg/mL for the αvβ5 assay. […]

[2] = target: T2, Human recombinant integrin αvβ3 (Homo sapiens, UniProt P05106+P06756); experiment: Solid phase receptor assay, αvβ3 (vitronectin); type: binding
T2 construct: purchased R&D Systems
Method: as §1

[3] = target: T1, Human recombinant integrin αvβ1; experiment: Thermal shift assay (differential scanning fluorimetry), αvβ1; type: binding; conditions: αvβ1, 20 μM Compound A
Method: Differential scanning fluorimetry was performed on a LightCycler 480 II, real-time PCR instrument (Roche Diagnostics). Human recombinant integrins from R&D Systems (αvβ1, αvβ3 and α5β1) were reconstituted at a concentration of […] in assay buffer (20 mM HEPES, pH=7.3, 100 mM NaCl, 1 mM MgCl2, 1 mM MnCl2) and diluted in assay buffer with Sypro orange (SIGMA) to a final concentration of 400 nM integrin and 5× Sypro orange. A volume of 4.9 μL of this mixture of protein and dye was transferred to a 384-well plate and 100 nL of DMSO or Compound A, dissolved in DMSO, were added using an Echo 555 instrument (Labcyte). The final concentration of Compound A in the assay was 20 μM. After mixing, the assay plate was sealed, spun at 1,000×g for two minutes, and subsequently heated from 25 to 99° C. over the course of 31 min in the LightCycler 480 II instrument. Fluorescence intensity was measured using excitation/emission wavelengths of 465 and 580 nm, respectively. Changes in protein thermal stability (ΔTm) upon compound binding were analyzed by using LightCycler 480 (software provided by the manufacturer).

[4] = test system: male obese ZSF1 rats (diabetic nephropathy model); experiment: ZSF1 rat 28-week in-feed study: urinary protein (UPCR, 24 h excretion); type: in vivo; conditions: for 24 h Urinary Protein Excretion / UPCR (urinary protein/creatinine ratio): obese ZSF1 rats
Method: The effects of Compound A (“A”) on renal function, plasma triglycerides, plasma cholesterol, kidney collagen I, kidney collagen III, renal histology, glomerular filtration rate, fibrosis score, and mRNA gene expression (profibrotic genes and integrin β3) were evaluated in male obese ZSF1 rats (a hybrid F1 of Zucker diabetic fatty rat and spontaneously hypertensive heart failure rat; a diabetic nephropathy model) when administered as in-feed for 28 weeks. Sixty obese male ZSF1 rats were randomized to five groups: Obese control (n=12), Compound A 60 mpk (n=12), Compound A 200 mpk (n=12), Compound A 400 mpk (n=12), Enalapril 10 mpk (n=12); Eight lean male ZSF1 rats were used for normal control. Renal functional changes were monitored by blood and urine analysis following in-feed dosing for 28 weeks. Compound exposure was also monitored during the study.

T1 sequence (P06756 31-992 limits assumed): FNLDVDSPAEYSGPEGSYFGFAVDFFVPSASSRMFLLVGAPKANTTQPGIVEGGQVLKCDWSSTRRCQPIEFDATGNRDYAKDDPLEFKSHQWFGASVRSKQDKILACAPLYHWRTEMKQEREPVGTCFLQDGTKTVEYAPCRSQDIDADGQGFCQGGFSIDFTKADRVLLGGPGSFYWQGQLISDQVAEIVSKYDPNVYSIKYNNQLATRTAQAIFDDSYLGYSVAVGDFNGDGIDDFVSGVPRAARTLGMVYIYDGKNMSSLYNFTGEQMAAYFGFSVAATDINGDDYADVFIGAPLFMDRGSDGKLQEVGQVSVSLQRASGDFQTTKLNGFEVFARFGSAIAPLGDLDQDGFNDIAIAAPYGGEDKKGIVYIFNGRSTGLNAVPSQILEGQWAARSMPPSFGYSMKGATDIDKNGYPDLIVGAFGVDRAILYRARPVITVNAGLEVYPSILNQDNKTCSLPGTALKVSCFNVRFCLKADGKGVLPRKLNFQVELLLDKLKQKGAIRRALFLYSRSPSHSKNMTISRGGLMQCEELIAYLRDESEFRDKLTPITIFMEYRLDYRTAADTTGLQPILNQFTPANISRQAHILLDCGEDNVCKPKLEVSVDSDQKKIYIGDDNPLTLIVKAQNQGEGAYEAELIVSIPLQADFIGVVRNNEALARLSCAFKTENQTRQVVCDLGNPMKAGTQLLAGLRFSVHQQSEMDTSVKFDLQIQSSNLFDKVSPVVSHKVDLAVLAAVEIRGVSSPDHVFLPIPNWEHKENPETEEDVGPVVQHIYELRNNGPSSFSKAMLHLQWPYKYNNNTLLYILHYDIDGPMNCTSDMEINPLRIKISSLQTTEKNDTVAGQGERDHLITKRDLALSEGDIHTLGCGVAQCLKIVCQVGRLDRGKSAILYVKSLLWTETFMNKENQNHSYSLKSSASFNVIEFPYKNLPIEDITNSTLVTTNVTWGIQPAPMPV
T1 sequence (P05556 21-728 limits assumed): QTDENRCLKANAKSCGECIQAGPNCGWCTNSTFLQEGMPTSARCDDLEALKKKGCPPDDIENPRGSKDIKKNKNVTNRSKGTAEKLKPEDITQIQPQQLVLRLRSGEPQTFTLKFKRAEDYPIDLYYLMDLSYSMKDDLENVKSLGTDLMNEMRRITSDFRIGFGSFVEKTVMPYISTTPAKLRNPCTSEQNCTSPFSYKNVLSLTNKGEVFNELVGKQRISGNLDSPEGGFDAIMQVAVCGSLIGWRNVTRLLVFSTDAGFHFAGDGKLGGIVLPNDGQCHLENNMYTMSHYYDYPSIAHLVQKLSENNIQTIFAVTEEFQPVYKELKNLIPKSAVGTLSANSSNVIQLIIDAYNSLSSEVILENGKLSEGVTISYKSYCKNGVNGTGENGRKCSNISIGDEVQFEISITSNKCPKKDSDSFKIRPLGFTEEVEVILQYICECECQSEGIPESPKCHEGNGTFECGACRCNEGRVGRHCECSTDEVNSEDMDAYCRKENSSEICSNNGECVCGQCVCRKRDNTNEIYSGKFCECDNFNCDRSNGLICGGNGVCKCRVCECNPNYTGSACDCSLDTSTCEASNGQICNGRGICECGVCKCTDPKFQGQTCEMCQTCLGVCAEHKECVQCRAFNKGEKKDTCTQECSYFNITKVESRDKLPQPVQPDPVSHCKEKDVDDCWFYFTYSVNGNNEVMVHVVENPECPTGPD
T2 sequence (P06756 31-992 limits assumed): as the sequence (P06756 31-992 limits assumed) above
T2 sequence (P05106 27-718 limits assumed): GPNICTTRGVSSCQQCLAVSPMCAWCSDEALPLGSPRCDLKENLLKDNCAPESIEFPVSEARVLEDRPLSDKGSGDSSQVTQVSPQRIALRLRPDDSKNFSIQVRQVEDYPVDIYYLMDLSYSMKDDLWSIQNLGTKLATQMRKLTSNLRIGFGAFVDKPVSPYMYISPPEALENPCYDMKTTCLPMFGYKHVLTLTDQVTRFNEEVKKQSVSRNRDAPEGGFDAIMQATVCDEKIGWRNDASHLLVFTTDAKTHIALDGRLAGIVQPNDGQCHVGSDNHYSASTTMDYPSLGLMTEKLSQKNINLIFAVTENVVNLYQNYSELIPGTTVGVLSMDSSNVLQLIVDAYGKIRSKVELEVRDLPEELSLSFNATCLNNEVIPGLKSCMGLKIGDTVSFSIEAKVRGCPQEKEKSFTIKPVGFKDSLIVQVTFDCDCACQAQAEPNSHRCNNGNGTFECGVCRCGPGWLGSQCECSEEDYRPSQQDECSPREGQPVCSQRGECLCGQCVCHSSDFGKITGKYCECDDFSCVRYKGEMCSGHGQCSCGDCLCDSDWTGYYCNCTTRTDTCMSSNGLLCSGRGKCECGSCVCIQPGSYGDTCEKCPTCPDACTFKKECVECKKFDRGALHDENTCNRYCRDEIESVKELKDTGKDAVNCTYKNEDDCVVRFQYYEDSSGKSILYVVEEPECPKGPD

Work on `COc1ccc([C@H](CC(=O)O)N2CCN(CCCc3ccc4c(n3)NCCC4)C2=O)cn1` [Compound A, 3-{2-Oxo-3-[3-(5,6,7,8-tetrahydro-[1,8]naphthyridin-2-yl)-propyl]imidazolidin-1-yl}-3 (S)-(6-methoxy-pyridin-3-yl)-propionic acid] yielded an IC50 ([1]; αvβ1, first of two experiments) of 2.1 nM, an IC50 ([1]; αvβ1, second of two experiments) of 0.9 nM and an IC50 ([2]; αvβ3, first of two experiments) of 5.2 nM. For the same compound, the IC50 ([2]; αvβ3, second of two experiments) was 0.33 nM, the ΔTm at 20 µM ([3]; first of two experiments) was 19.4 °C and the ΔTm at 20 µM ([3]; second of two experiments) was 15.6 °C. For the same compound, the “effect on urinary protein/creatinine ratio (UPCR)” value ([4]; 400 mpk, 16-, 21-, 24- and 28-week of treatment) was “significantly decreased”, the “effect on 24 h urinary protein excretion” value ([4]; 400 mpk, 16-, 24- and 28-week of treatment) was “significantly decreased” and the “renal protection: proteinuria and albuminuria” value ([4]; ZSF-1 rats vs untreated obese ZSF-1 rats (summary)) was “ameliorating proteinuria and albuminuria”. For the same compound, the “24 h Urinary Protein Excretion” value ([4]; 60 mpk in-feed, week 1) was 137.2 ± 12.7 mg/24 h, the “UPCR (urinary protein/creatinine ratio)” value ([4]; 60 mpk in-feed, week 1) was 12.3 ± 1.0 mg/mg and the “24 h Urinary Protein Excretion” value ([4]; 60 mpk in-feed, week 2) was 139.6 ± 11.8 mg/24 h. For the same compound, the “UPCR (urinary protein/creatinine ratio)” value ([4]; 60 mpk in-feed, week 2) was 11.9 ± 1.0 mg/mg, the “24 h Urinary Protein Excretion” value ([4]; 60 mpk in-feed, week 4) was 158.4 ± 13.7 mg/24 h and the “UPCR (urinary protein/creatinine ratio)” value ([4]; 60 mpk in-feed, week 4) was 13.4 ± 1.1 mg/mg. For the same compound, the “24 h Urinary Protein Excretion” value ([4]; 60 mpk in-feed, week 6) was 197.9 ± 15.7 mg/24 h, the “UPCR (urinary protein/creatinine ratio)” value ([4]; 60 mpk in-feed, week 6) was 16.6 ± 1.2 mg/mg and the “24 h Urinary Protein Excretion” value ([4]; 60 mpk in-feed, week 8) was 265.7 ± 18.3 mg/24 h. For the same compound, the “UPCR (urinary protein/creatinine ratio)” value ([4]; 60 mpk in-feed, week 8) was 20.2 ± 1.4 mg/mg, the “24 h Urinary Protein Excretion” value ([4]; 60 mpk in-feed, week 12) was 425.3 ± 21.6 mg/24 h and the “UPCR (urinary protein/creatinine ratio)” value ([4]; 60 mpk in-feed, week 12) was 30.8 ± 1.7 mg/mg. The “24 h Urinary Protein Excretion” value ([4]; 60 mpk in-feed, week 16) was 462.2 ± 30.4 mg/24 h, the “UPCR (urinary protein/creatinine ratio)” value ([4]; 60 mpk in-feed, week 16) was 27.3 ± 1.7 mg/mg and the “24 h Urinary Protein Excretion” value ([4]; 60 mpk in-feed, week 21) was 486.2 ± 39.2 mg/24 h. For the same compound, the “UPCR (urinary protein/creatinine ratio)” value ([4]; 60 mpk in-feed, week 21) was 27.7 ± 2.0+ mg/mg, the “24 h Urinary Protein Excretion” value ([4]; 60 mpk in-feed, week 24) was 582.0 ± 43.9 mg/24 h and the “UPCR (urinary protein/creatinine ratio)” value ([4]; 60 mpk in-feed, week 24) was 34.4 ± 2.3 mg/mg. For the same compound, the “24 h Urinary Protein Excretion” value ([4]; 60 mpk in-feed, week 28) was 654.3 ± 48.1 mg/24 h, the “UPCR (urinary protein/creatinine ratio)” value ([4]; 60 mpk in-feed, week 28) was 37.5 ± 2.8 mg/mg and the “24 h Urinary Protein Excretion” value ([4]; 60 mpk in-feed, week −2) was 128.8 ± 11.0 mg/24 h. The “UPCR (urinary protein/creatinine ratio)” value ([4]; 60 mpk in-feed, week −2) was 10.9 ± 0.9 mg/mg, the “24 h Urinary Protein Excretion” value ([4]; 200 mpk in-feed, week 1) was 117.7 ± 9.4 mg/24 h and the “UPCR (urinary protein/creatinine ratio)” value ([4]; 200 mpk in-feed, week 1) was 10.7 ± 0.8 mg/mg. For the same compound, the “24 h Urinary Protein Excretion” value ([4]; 200 mpk in-feed, week 2) was 124.9 ± 10.9 mg/24 h, the “UPCR (urinary protein/creatinine ratio)” value ([4]; 200 mpk in-feed, week 2) was 10.9 ± 1.0 mg/mg and the “24 h Urinary Protein Excretion” value ([4]; 200 mpk in-feed, week 4) was 140.0 ± 12.4 mg/24 h. The “UPCR (urinary protein/creatinine ratio)” value ([4]; 200 mpk in-feed, week 4) was 12.1 ± 1.1 mg/mg, the “24 h Urinary Protein Excretion” value ([4]; 200 mpk in-feed, week 6) was 167.1 ± 15.0 mg/24 h and the “UPCR (urinary protein/creatinine ratio)” value ([4]; 200 mpk in-feed, week 6) was 14.1 ± 1.2 mg/mg. The “24 h Urinary Protein Excretion” value ([4]; 200 mpk in-feed, week 8) was 233.9 ± 18.7 mg/24 h, the “UPCR (urinary protein/creatinine ratio)” value ([4]; 200 mpk in-feed, week 8) was 18.0 ± 1.5 mg/mg and the “24 h Urinary Protein Excretion” value ([4]; 200 mpk in-feed, week 12) was 400.5 ± 20.5 mg/24 h. For the same compound, the “UPCR (urinary protein/creatinine ratio)” value ([4]; 200 mpk in-feed, week 12) was 28.7 ± 1.6 mg/mg, the “24 h Urinary Protein Excretion” value ([4]; 200 mpk in-feed, week 16) was 452.2 ± 27.6 mg/24 h and the “UPCR (urinary protein/creatinine ratio)” value ([4]; 200 mpk in-feed, week 16) was 26.3 ± 1.5 mg/mg. For the same compound, the “24 h Urinary Protein Excretion” value ([4]; 200 mpk in-feed, week 21) was 489.0 ± 28.6 mg/24 h, the “UPCR (urinary protein/creatinine ratio)” value ([4]; 200 mpk in-feed, week 21) was 28.1 ± 1.6+ mg/mg and the “24 h Urinary Protein Excretion” value ([4]; 200 mpk in-feed, week 24) was 541.6 ± 32.3 mg/24 h. The “UPCR (urinary protein/creatinine ratio)” value ([4]; 200 mpk in-feed, week 24) was 32.0 ± 1.9 mg/mg, the “24 h Urinary Protein Excretion” value ([4]; 200 mpk in-feed, week 28) was 646.2 ± 44.6 mg/24 h and the “UPCR (urinary protein/creatinine ratio)” value ([4]; 200 mpk in-feed, week 28) was 36.5 ± 2.3 mg/mg. The “24 h Urinary Protein Excretion” value ([4]; 200 mpk in-feed, week −2) was 122.3 ± 9.5 mg/24 h, the “UPCR (urinary protein/creatinine ratio)” value ([4]; 200 mpk in-feed, week −2) was 10.7 ± 0.9 mg/mg and the “24 h Urinary Protein Excretion” value ([4]; 400 mpk in-feed, week 1) was 138.5 ± 11.3 mg/24 h. The “UPCR (urinary protein/creatinine ratio)” value ([4]; 400 mpk in-feed, week 1) was 12.3 ± 0.9 mg/mg, the “24 h Urinary Protein Excretion” value ([4]; 400 mpk in-feed, week 2) was 148.8 ± 12.3 mg/24 h and the “UPCR (urinary protein/creatinine ratio)” value ([4]; 400 mpk in-feed, week 2) was 12.5 ± 0.9 mg/mg. The “24 h Urinary Protein Excretion” value ([4]; 400 mpk in-feed, week 4) was 148.0 ± 8.3 mg/24 h, the “UPCR (urinary protein/creatinine ratio)” value ([4]; 400 mpk in-feed, week 4) was 12.7 ± 0.6 mg/mg and the “24 h Urinary Protein Excretion” value ([4]; 400 mpk in-feed, week 6) was 162.6 ± 11.7 mg/24 h. The “UPCR (urinary protein/creatinine ratio)” value ([4]; 400 mpk in-feed, week 6) was 13.8 ± 0.9 mg/mg, the “24 h Urinary Protein Excretion” value ([4]; 400 mpk in-feed, week 8) was 224.8 ± 16.3 mg/24 h and the “UPCR (urinary protein/creatinine ratio)” value ([4]; 400 mpk in-feed, week 8) was 17.8 ± 1.2 mg/mg. The “24 h Urinary Protein Excretion” value ([4]; 400 mpk in-feed, week 12) was 358.4 ± 19.9 mg/24 h, the “UPCR (urinary protein/creatinine ratio)” value ([4]; 400 mpk in-feed, week 12) was 26.9 ± 1.5 mg/mg and the “24 h Urinary Protein Excretion” value ([4]; 400 mpk in-feed, week 16) was 360.5 ± 19.7++ mg/24 h. The “UPCR (urinary protein/creatinine ratio)” value ([4]; 400 mpk in-feed, week 16) was 20.9 ± 1.0++ mg/mg, the “24 h Urinary Protein Excretion” value ([4]; 400 mpk in-feed, week 21) was 448.1 ± 19.6 mg/24 h and the “UPCR (urinary protein/creatinine ratio)” value ([4]; 400 mpk in-feed, week 21) was 26.0 ± 1.3++ mg/mg. For the same compound, the “24 h Urinary Protein Excretion” value ([4]; 400 mpk in-feed, week 24) was 483.8 ± 27.1++ mg/24 h, the “UPCR (urinary protein/creatinine ratio)” value ([4]; 400 mpk in-feed, week 24) was 28.1 ± 1.7++ mg/mg and the “24 h Urinary Protein Excretion” value ([4]; 400 mpk in-feed, week 28) was 554.9 ± 28.3++ mg/24 h. For the same compound, the “UPCR (urinary protein/creatinine ratio)” value ([4]; 400 mpk in-feed, week 28) was 31.2 ± 1.7++ mg/mg, the “24 h Urinary Protein Excretion” value ([4]; 400 mpk in-feed, week −2) was 127.0 ± 11.0 mg/24 h and the “UPCR (urinary protein/creatinine ratio)” value ([4]; 400 mpk in-feed, week −2) was 10.8 ± 0.9 mg/mg.
